Experiments:
[1] = system: MAT-LyLu-B2 prostate cancer cells; assay: orthoptic prostate cancer rat model (tumor progression); type: in vivo; details: male Copenhagen rats, 3 mg/kg s.c. daily from day 1, 21 days after surgery, n=5-6, p<0.05; saline 1856±443 mg
Procedure: The potential of a BKB1-R antagonist to inhibit tumor progression in an orthoptic prostate cancer rat model was evaluated. Under anesthesia, male Copenhagen rats were injected in the anterior prostatic lobe with 100 000 MAT-LyLu-B2 prostate cancer cells. One day after the surgery, the animals received a daily injection of either saline or Compound A (3 mg/kg s.c.). At 21 days after the surgery, the animals were sacrificed and the prostate tumor was excised and weighted. Average weight of the prostate and tumor was 1856±443 mg for saline-treated rats and 504±135 mg with Compound A-treated animals (n=5-6 p<0.05). Two other cancerous cell-types (R 3327-G, MAT-Lu) were implanted in rats and similar results were obtained at inhibiting tumor progression dose-dependently over periods of time. A BKB1-Ra was also reported effective at stopping and reversing the progression of established tumor, considering efficacy, reversibility and relapse of treatment. These elements were maintained upon dual and triple combinations with other anti-cancer, anti-angiogenic, anti-proliferative agents such as taxane and platinum related compounds.

PC-3 cells = details: in vitro, cited from earlier work

Substance: Ac-Orn[Oic^2,(α-Me)Phe^5,D-βNal^7,Ile^8]desArg^9BK [Compound A]
- Average weight of the prostate and tumor [1]: 504 ± 135 mg

Substance: Arg Pro Pro Gly Phe Ser Pro Phe (RPPGFSPF; desArg9 BK) [desArg^9-BK]
- cell growth and proliferation of PC-3 cells (PC-3 cells; BKB1-R agonist alone): stimulated

Substance: [Leu^8]desArg^9-BK
- effect on desArg^9-BK-stimulated growth of PC-3 cells (PC-3 cells; growth stimulated by desArg^9-BK): blocked
